Data from US8557842B2 (priority 2010, dated 2013).
“Also recorded” adds a separate entry of the source. Where two headings read alike, the source gives them in different places.

Key:
[1] = test system: Male C57BL/6 mice; experiment: Locomotor ambulatory activity; format: in vivo
Source text: Many, but not all, psychostimulants with potent action at DAT, also stimulate locomotor ambulatory activity in rodents. […] Male C57BL/6 mice were contained in a box equipped with infrared beams, the consecutive interruption of which by horizontal activity by the mouse provided a measure for ambulation.

[2] = target: T1, human NET (Homo sapiens, UniProt P23975); experiment: cell-based
T1 construct: expressed in transfected cells; cells as described by Reith et al., J. Neurosci

[3] = target: T2, human SERT (Homo sapiens, UniProt P31645); experiment: cell-based
T2 construct: expressed in transfected cells; cells as described by Eshleman et al., J. Pharmacol. Exp. Ther. 1995, 274:276-283

[4] = target: T3, human DAT (Homo sapiens, UniProt Q01959); experiment: Inhibition of [3H]DA uptake in cells expressing cloned human DAT; format: cell-based
T3 construct: expressed in transfected cells; cells as described by Chen et al., J. Neurochem; 2004, 89:853-864

[5] = 25 mg/kg i.p., reported levels, cited from earlier work
[6] = test system: adult male C57BL/6 mice; experiment: Forced swim test model of antidepressant-like activity; format: in vivo; settings: vs saline
Protocol: Data are mean ±SEM (vertical bar). ***P<0.001, n=7-9 (One-way ANOVA and Bonferroni post-hoc tests).
The Forced Swim Test (FST) is a rodent model often used to evaluate the anti-depressive effect of therapeutics. Rats swim under conditions in which escape is not possible. On the first day, rats are forced to swim for 15 minutes. The animals are observed to initially struggle to escape from the water. They then adopt a posture of immobility making only movements necessary to keep their heads above water. The rats are retested 24 hours later. The immobility increases. Treatment with standard antidepressant drugs within the 24 hours between the first exposure to forced swimming and retesting can block facilitated immobility, an effect which is associated with antidepressant efficacy in humans. See Porsolt et al, (1977) Nature 266:730-732; Detke et al. (1995) Psychopharmacology 121:66-72.
Antidepressant-like activity of compound 11 was tested in the forced swim test model as previously described (Porsolt et al., supra; Castagne et al. (2011) Curr Protoc Neurosci 55: Unit 8.10A). Briefly, adult male C57BL/6 mice (N=7-9/group) were placed into individual glass cylinders containing clean 25° C. (±1° C.) water, 15 cm deep for 15 minutes. Mice were removed, dried and returned to their home cages. A second 6-minute swim test was given 24 hours after the first. Saline (3 ml/kg, i.p.), Compound 11 (30 mg/kg, i.p.) or desipramine (10 mg/kg, i.p.; a well-known antidepressant, used as a positive control) were administered […], 5 hours, and 1 hour before the second swim test (i.e., 30 minutes, 19 hours and 23 hours after the first swim). Test sessions were video recorded. Behavior during the 6-minute swim test was scored from the videotapes. The cumulative amount of time that the mouse was immobile in the water during the last 4 minutes of the test was measured, as was the latency for the mouse to show the first bout of immobility behavior. Immobility was defined as the mouse performing no movements except those necessary to keep the head above the water (e.g., no swimming or climbing behaviors). […] Immobility scores were analyzed by a one-way ANOVA, followed by the Bonferroni post-hoc analysis.

[7] = Brain uptake: brain and plasma levels by mass spectrometry; settings: for concentration at 5 min / concentration at 30 min: male, CD-1, mouse, intraperitoneal, 30 mg/kg
Protocol: Data shown are mean±SEM (vertical bar).
Brain and plasma levels of 11 were determined by mass spectrometry.

[8] = tested at 10 mg/kg and 30 mg/kg

T1 sequence (P23975 whole entry): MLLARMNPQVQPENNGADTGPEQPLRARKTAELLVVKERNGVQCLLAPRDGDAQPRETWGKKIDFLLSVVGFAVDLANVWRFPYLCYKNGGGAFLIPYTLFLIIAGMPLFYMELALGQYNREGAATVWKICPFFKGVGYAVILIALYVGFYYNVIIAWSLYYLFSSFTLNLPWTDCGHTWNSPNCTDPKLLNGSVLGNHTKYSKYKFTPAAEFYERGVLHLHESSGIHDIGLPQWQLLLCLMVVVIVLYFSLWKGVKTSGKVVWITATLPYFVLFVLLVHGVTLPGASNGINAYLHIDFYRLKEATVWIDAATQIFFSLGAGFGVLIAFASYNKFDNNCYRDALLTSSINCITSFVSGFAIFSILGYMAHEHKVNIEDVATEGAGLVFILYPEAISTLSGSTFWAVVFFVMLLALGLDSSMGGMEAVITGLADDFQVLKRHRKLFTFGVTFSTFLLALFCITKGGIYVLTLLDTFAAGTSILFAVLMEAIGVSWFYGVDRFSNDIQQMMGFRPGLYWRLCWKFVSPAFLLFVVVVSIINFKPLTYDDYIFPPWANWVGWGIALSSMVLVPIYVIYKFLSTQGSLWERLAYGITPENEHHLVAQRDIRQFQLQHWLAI
T2 sequence (P31645 whole entry): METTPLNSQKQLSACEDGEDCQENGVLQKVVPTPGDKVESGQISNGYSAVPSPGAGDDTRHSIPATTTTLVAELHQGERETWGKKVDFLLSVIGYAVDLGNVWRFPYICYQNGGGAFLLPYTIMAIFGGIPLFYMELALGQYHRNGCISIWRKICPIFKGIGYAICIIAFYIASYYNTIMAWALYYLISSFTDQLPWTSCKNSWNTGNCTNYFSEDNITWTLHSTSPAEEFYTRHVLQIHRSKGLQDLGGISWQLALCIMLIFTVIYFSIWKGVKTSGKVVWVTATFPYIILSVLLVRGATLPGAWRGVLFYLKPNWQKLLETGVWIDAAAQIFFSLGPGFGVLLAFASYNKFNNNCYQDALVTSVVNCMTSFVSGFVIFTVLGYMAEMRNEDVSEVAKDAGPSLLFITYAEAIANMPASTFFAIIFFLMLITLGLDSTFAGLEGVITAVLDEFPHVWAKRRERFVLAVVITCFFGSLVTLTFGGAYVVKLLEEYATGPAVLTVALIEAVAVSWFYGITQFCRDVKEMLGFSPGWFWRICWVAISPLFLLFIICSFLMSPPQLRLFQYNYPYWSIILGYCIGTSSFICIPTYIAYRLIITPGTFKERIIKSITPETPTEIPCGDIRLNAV
T3 sequence (Q01959 whole entry): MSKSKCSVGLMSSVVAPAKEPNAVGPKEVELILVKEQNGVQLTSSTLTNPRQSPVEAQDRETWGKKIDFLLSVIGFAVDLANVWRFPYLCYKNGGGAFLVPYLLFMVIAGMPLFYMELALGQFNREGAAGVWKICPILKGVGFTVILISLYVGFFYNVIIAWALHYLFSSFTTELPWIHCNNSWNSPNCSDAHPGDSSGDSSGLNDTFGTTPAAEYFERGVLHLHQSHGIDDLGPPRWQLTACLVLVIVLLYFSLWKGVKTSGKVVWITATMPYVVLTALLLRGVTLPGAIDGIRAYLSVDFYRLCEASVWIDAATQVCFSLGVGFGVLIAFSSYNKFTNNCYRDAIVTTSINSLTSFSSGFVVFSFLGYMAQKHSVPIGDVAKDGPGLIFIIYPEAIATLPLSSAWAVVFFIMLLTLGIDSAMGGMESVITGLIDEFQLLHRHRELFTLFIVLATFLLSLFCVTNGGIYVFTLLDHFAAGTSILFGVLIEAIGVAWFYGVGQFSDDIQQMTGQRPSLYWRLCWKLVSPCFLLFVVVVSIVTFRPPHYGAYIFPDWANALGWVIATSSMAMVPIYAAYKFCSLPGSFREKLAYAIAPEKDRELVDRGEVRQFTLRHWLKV

With `COC(=O)[C@H]1[C@@H](OC(=O)c2ccccc2)C[C@@H]2CC[C@@]1(c1ccccc1)N2C` [Compound 11d, Methyl (1R,2R,3S,5S)-(−)-3-(benzoyloxy)-1-phenyl-8-methyl-8-azabicyclo[3.2.1]octane-2-carboxylate] as the compound, how does the Locomotor stimulation [1, 8] read?
The Locomotor stimulation was “locomotor activities below those observed with 10 mg/kg of cocaine”.

And the Ki [2]?
The Ki was 1980 nM.

And the Ki [3]?
Its Ki is 974 ± 308 nM.

And the Ki [4]?
The Ki was 31.9 ± 5.7 nM.

And the “Potency at blocking DAT relative to cocaine” value ([4]; versus cocaine)?
Its value is “ten-fold more potent than cocaine”.

What does the source list for `COC(=O)[C@H]1[C@@H](OC(=O)c2ccccc2)C[C@@H]2CC[C@H]1N2C` [cocaine, methyl-(1R,2R,3S,5S)-3-(benzoyloxy)-8-methyl-8-azabicyclo[3.2.1]octane-2-carboxylate]?
Locomotor stimulation ([1]; 10 mg/kg intraperitoneally): slight elevation above saline; Locomotor stimulation ([1]; 30 mg/kg intraperitoneally): pronounced increase; Brain level ([5]; 5 minutes): 6700 ± 1200 ng/mL; Plasma level ([5]; 5 minutes): 1100 ± 100 ng/mL; Brain level ([5]; 30 minutes): 2300 ± 300 ng/mL; Plasma level ([5]; 30 minutes): 400 ± 50 ng/mL

Which Locomotor stimulation [1, 8] does the source give for `CCC[C@@]12CC[C@@H](C[C@H](OC(=O)c3ccccc3)[C@@H]1C(=O)OC)N2C` [Compound 11a, Methyl (1R,2R,3S,5S)-(−)-1-propyl-3-(benzoyloxy)-8-methyl-8-azabicyclo[3.2.1]octane-2-carboxylate] here?
The Locomotor stimulation was “locomotor activities below those observed with 10 mg/kg of cocaine”.

And the Ki [2]?
Its Ki is 796 ± 195 nM.

What about the Ki [3] of the same compound?
The Ki was 2990 nM.

What about the Ki [4] of the same compound?
Its Ki is 871 ± 205 nM.

Which results are given for `CCCCC[C@@]12CC[C@@H](C[C@H](OC(=O)c3ccccc3)[C@@H]1C(=O)OC)N2C` [Compound 11c, Methyl (1R,2R,3S,5S)-(+)-1-pentyl-3-(benzoyloxy)-8-methyl-8-azabicyclo[3.2.1]octane-2-carboxylate]?
Locomotor stimulation [1, 8]: locomotor activities below those observed with 10 mg/kg of cocaine; Ki [2]: 1600 ± 21 nM; Ki [3]: 1890 nM; Ki [4]: 1270 nM

For `CNCCCN1c2ccccc2CCc2ccccc21` [desipramine, reference compound], which Immobility time ([6]; 10 mg/kg i.p.) is on record?
The Immobility time was “decreased immobility time”.

What about the “Latency to first episode of immobility” value ([6]; 10 mg/kg i.p.) of the same compound?
Its value is “increased latency to first episode of immobility”.

Which Locomotor stimulation [1, 8] does the source give for `CC[C@@]12CC[C@@H](C[C@H](OC(=O)c3ccccc3)[C@@H]1C(=O)OC)N2C` [Compound 11b, Methyl (1R,2R,3S,5S)-(−)-1-ethyl-3-(benzoyloxy)-8-methyl-8-azabicyclo[3.2.1]octane-2-carboxylate] here?
The Locomotor stimulation was “locomotor activities below those observed with 10 mg/kg of cocaine”.

And the Ki [2]?
The Ki was 598 ± 179 nM.

What about the Ki [3] of the same compound?
Its Ki is 1110 nM.

What about the Ki [4] of the same compound?
The Ki was 95.1 ± 17 nM.

With `COC(=O)C1[C@@H](OC(=O)c2ccccc2)CC2CCC1(C)N2C` (stereo partly drawn) [Compound 11, Methyl (1R,2R,3S,5S)-(−)-3-(benzoyloxy)-1,8-dimethyl-8-azabicyclo[3.2.I]octane-2-carboxylate] as the compound, how does the Locomotor stimulation ([1]; 30 mg/kg intraperitoneally) read?
Its Locomotor stimulation is “did not stimulate locomotion to levels above those seen with 10 mg/kg of cocaine”.

What about the Ki [2] of the same compound?
The Ki was 488 ± 101 nM.

What about the Immobility time ([6]; 30 mg/kg i.p., last 4 minutes of the 6-minute swim test) of the same compound?
Its Immobility time is “decreased immobility time; also recorded: as effective as the antidepressant desipramine in reducing immobility time”.

And the “Latency to first episode of immobility” value ([6]; 30 mg/kg i.p.)?
The value was “increased latency to first episode of immobility; also recorded: significantly increased over saline”.

What about the Ki [3] of the same compound?
The Ki was 435 ± 77 nM.

What about the concentration at 5 min ([7]; brain) of the same compound?
Its concentration at 5 min is 8600 ± 700 ng/mL.

And the concentration at 30 min ([7]; brain)?
The concentration at 30 min was 3800 ± 200 ng/mL.

What about the concentration at 5 min ([7]; plasma) of the same compound?
Its concentration at 5 min is 3300 ± 200 ng/mL.

And the concentration at 30 min ([7]; plasma)?
The concentration at 30 min was 1700 ± 300 ng/mL.

And the Brain penetration ([7]; pharmacokinetic assay, compared with cocaine)?
The Brain penetration was “occupies the brain as readily as cocaine”.

What about the Ki [4] of the same compound?
The Ki was 168 ± 23 nM.
